Measurements published in patent US10238670B2, “9-aminomethyl minocycline compounds and methods of use thereof in urinary tract infection (UTI) treatment” (Paratek Pharmaceuticals, Inc., priority 2016, dated 2019).
Like-named read-outs stand apart in the source and are kept apart here.

Experiment: Phase 1b study in female adults with cystitis, plasma PK
Assay type: in vivo, human
Conditions: plasma, plasma; for half-life / AUC(0-t) / Cmax / concentration at 5 day / Tmax: female, human
Method: According to the study design, a randomized (1:1:1), open-label, parallel designed Phase 1b study comparing 3 dosing regimens of Compound 1 (9-[(2,2-dimethyl-propyl amino)-methyl-minocycline) in the treatment of female adults with cystitis was conducted. About 31 female patients with uncomplicated urinary tract infection (cystitis) who met inclusion and exclusion criteria were enrolled at 2-4 U.S. treatment centers. All enrolled subjects participated in the study for approximately 5-6 weeks. Following Screening of up to 48 hrs, eligible subjects were randomly assigned to receive one of 3 dosing regimens of Compound 1 treatment as shown below. Subjects in all treatment groups were domiciled for a 5-day treatment period. Details of the study are further described below.
Subjects were randomized (1:1:1) to one of the following treatment arms: • 1. Group 1: IV load, p.o. daily (200 mg Compound 1 IV every 24 hours (q24h) for 1 dose, followed by 300 mg p.o. q24h for a total of 5 days); • 2. Group 2: p.o. load, p.o. daily (300 mg Compound 1 p.o. every 12 hours (q12h) for 2 doses, followed by 300 mg p.o. q24h for a total of 5 days); • 3. Group 3: high p.o. load, high p.o. daily (450 mg Compound 1 p.o. q12h for 2 doses, followed by 450 mg p.o. q24h for a total of 5 days).
Blood samples were collected and analyzed for Compound 1 concentration at the following times. Pre-dose blood PK evaluations were based on blood samples collected within 10 min of each start (e.g., t=0 h dose for Day 1, t=24 h dose for Day 2, etc.). • Day 1: Pre-dose, and 0.75, 1, 2, 3, 4, 6, 8 and 12 hours after the t=0 h dose (12 h sample before the t=12 h dose for Groups 2 and 3); • Day 2: prior to the t=24 h dose; • Day 3: prior to the t=48 h dose; • Day 4: prior to the t=72 h dose; • Day 5: Pre-dose, and 0.5, 1, 2, 3, 4, 6, 8 and 12 hours after the t=96 h dose • Day 6: at t=120 h (24 hours after the t=96 h dose on Day 5)
Following the final oral doses on Day 5 the Compound 1 plasma concentration-time data for Groups 1, 2 and 3 were used to determine Cmax, Tmax, AUC24h, AUCt. Trough plasma concentrations (Ctrough) following each dose (Days 2 to 6) were also determined.
Blood samples for PK are collected at the time points specified below. • Day 1: Predose, and 0.75, 1, 2, 3, 4, 6, 8 and 12 hours after the t=0 h dose (12 h sample before the t=12 h dose for Groups 2 and 3); • Day 2: prior to the t=24 h dose; • Day 3: prior to the t=48 h dose; • Day 4: prior to the t=72 h dose; • Day 5: Predose, and 0.5, 1, 2, 3, 4, 6, 8 and 12 hours after the t=96 h dose • Day 6: at t=120 h (24 hours after the t=96 h dose on Day 5)
Blood was collected either by fresh venipuncture or via a cannula used solely for that purpose. The dates and times for all doses of test article and PK sample collections were recorded. For intravenously administered doses of test article, the start and stop times for each infusion were recorded. Immediately after the sample was collected, the tube was gently inverted 5 to 8 times to thoroughly mix the anticoagulant and then placed upright in a cryoblock or test tube rack surrounded by ice until centrifugation. Samples were centrifuged at 1500×g for 10 minutes at approximately 4° C. within 30 minutes of collection. The resultant plasma was divided into 2 equal aliquots, placed in individual cryovials, and immediately frozen at −20° C. or colder within 1 hour of collection. The samples were kept frozen at −20° C. or colder pending shipment to the bioanalytical laboratory.
The Compound 1 plasma concentration data was listed and summarized by time point and treatment group. The following PK parameters were estimated from the Compound 1 plasma concentration-time data: […]

For `CN(C)c1cc(CNCC(C)(C)C)c(O)c2c1C[C@H]1C[C@H]3[C@H](N(C)C)C(O)=C(C(N)=O)C(=O)[C@@]3(O)C(O)=C1C2=O` [Compound 1, 9-[(2,2-dimethyl-propylamino)-methyl]-minocycline], the half-life (oral, 300 mg, Day 5, IV_PO300, read-out: T½, Mean (converted)) was 13.8 h, the half-life (oral, 300 mg, Day 5, IV_PO300, read-out: T½, Median (converted)) was 12.1 h and the AUC(0-t) (oral, 300 mg, Day 5, PO300, read-out: AUC(0-24 hrs), Geo. Mean) was 12400 ng·h/mL. It also gave an AUC(0-t) (oral, 300 mg, Day 5, PO300, read-out: AUC(0-24 hrs), Mean) of 13500 ng·h/mL, an AUC(0-t) (oral, 300 mg, Day 5, PO300, read-out: AUC(0-24 hrs), Median) of 13400 ng·h/mL and a Cmax (oral, 300 mg, Day 5, PO300, read-out: Cmax, Geo. Mean) of 999 ng/mL. It also gave a Cmax (oral, 300 mg, Day 5, PO300, read-out: Cmax, Mean) of 1120 ng/mL, a Cmax (oral, 300 mg, Day 5, PO300, read-out: Cmax, Median) of 1070 ng/mL and a concentration at 5 day (oral, 300 mg, Day 5, PO300, read-out: Ctrough, Geo. Mean) of 293 ng/mL. The concentration at 5 day (oral, 300 mg, Day 5, PO300, read-out: Ctrough, Mean) was 319 ng/mL, the concentration at 5 day (oral, 300 mg, Day 5, PO300, read-out: Ctrough, Median) was 315 ng/mL and the Tmax (oral, 300 mg, Day 5, PO300, read-out: Tmax, Geo. Mean) was 3.61 h. The Tmax (oral, 300 mg, Day 5, PO300, read-out: Tmax, Mean) was 3.9 h, the Tmax (oral, 300 mg, Day 5, PO300, read-out: Tmax, Median) was 3 h and the AUC(0-t) (oral, 450 mg, Day 1, PO450, read-out: AUC(0-12 hrs), Geo. Mean) was 6690 ng·h/mL. It also gave an AUC(0-t) (oral, 450 mg, Day 1, PO450, read-out: AUC(0-12 hrs), Mean) of 6850 ng·h/mL, an AUC(0-t) (oral, 450 mg, Day 1, PO450, read-out: AUC(0-12 hrs), Median) of 6650 ng·h/mL and a Cmax (oral, 450 mg, Day 1, PO450, read-out: Cmax, Geo. Mean) of 948 ng/mL. The Cmax (oral, 450 mg, Day 1, PO450, read-out: Cmax, Mean) was 987 ng/mL, the Cmax (oral, 450 mg, Day 1, PO450, read-out: Cmax, Median) was 947 ng/mL and the Tmax (oral, 450 mg, Day 1, PO450, read-out: Tmax, Geo. Mean) was 2.21 h. It also gave a Tmax (oral, 450 mg, Day 1, PO450, read-out: Tmax, Median) of 3 h, an AUC(0-t) (oral, 450 mg, Day 5, PO450, read-out: AUC(0-24 hrs), Geo. Mean) of 18700 ng·h/mL and an AUC(0-t) (oral, 450 mg, Day 5, PO450, read-out: AUC(0-24 hrs), Mean) of 19800 ng·h/mL. The AUC(0-t) (oral, 450 mg, Day 5, PO450, read-out: AUC(0-24 hrs), Median) was 21600 ng·h/mL, the Cmax (oral, 450 mg, Day 5, PO450, read-out: Cmax, Geo. Mean) was 1360 ng/mL and the Cmax (oral, 450 mg, Day 5, PO450, read-out: Cmax, Mean) was 1490 ng/mL. The Cmax (oral, 450 mg, Day 5, PO450, read-out: Cmax, Median) was 1640 ng/mL, the concentration at 5 day (oral, 450 mg, Day 5, PO450, read-out: Ctrough, Geo. Mean) was 462 ng/mL and the concentration at 5 day (oral, 450 mg, Day 5, PO450, read-out: Ctrough, Mean) was 484 ng/mL. It also gave a concentration at 5 day (oral, 450 mg, Day 5, PO450, read-out: Ctrough, Median) of 503 ng/mL, a Tmax (oral, 450 mg, Day 5, PO450, read-out: Tmax, Geo. Mean) of 2.64 h and a Tmax (oral, 450 mg, Day 5, PO450, read-out: Tmax, Mean) of 3.36 h. For the same molecule, the Tmax (oral, 450 mg, Day 5, PO450, read-out: Tmax, Median) was 3.02 h, the Tmax (po, 300 mg, Day 1, 300 mg po (n = 10), median, read-out: tmax) was 3 h and the Cmax (po, 300 mg, Day 5, 300 mg po (n = 10), mean, read-out: Cmax) was 1120 ng/mL. For the same molecule, the Tmax (po, 300 mg, Day 5, 300 mg po (n = 10), median, read-out: tmax) was 3 h, the AUC(0-t) (po, 450 mg, Day 1, 450 mg po (n = 10), mean, read-out: AUC0-12) was 6850 ng·h/mL and the Tmax (po, 450 mg, Day 1, 450 mg po (n = 10), median, read-out: tmax) was 3 h. The Cmax (po, 450 mg, Day 1, 450 mg po (n = 10), mean, read-out: Cmax) was 990 ng/mL, the AUC(0-t) (po, 450 mg, Day 5, 450 mg po (n = 10), mean, read-out: AUC0-24) was 19800 ng·h/mL and the Cmax (po, 450 mg, Day 5, 450 mg po (n = 10), mean, read-out: Cmax) was 1490 ng/mL. The Tmax (po, 450 mg, Day 5, 450 mg po (n = 10), median, read-out: tmax) was 3 h, the “Lambda Z, Geo. Mean” value (Day 1, IV_PO300) was 0.0614 h⁻¹ and the “Lambda Z, Mean” value (Day 1, IV_PO300) was 0.0620 h⁻¹. For the same molecule, the “Lambda Z, Median” value (Day 1, IV_PO300) was 0.0605 h⁻¹, the “Tmax, Mean” value (Day 1, PO450) was 2.492 h and the “Lambda Z, Geo. Mean” value (Day 5, IV_PO300) was 0.0526 h⁻¹. For the same molecule, the “Lambda Z, Mean” value (Day 5, IV_PO300) was 0.0545 h⁻¹ and the “Lambda Z, Median” value (Day 5, IV_PO300) was 0.0574 h⁻¹.
